# How the values were obtained:
# [1] = test system: rape; experiment: Test B pre/postemergence rape; type: in vivo, Brassica napus
# In short: (§1)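 Test chemicals in a non-phytotoxic solvent mixture with surfactant were sprayed preemergence onto planted seeds and postemergence onto plants 2 to 18 cm tall (1- to 4-leaf stage). After twelve to sixteen days in a greenhouse, injury was visually rated against untreated controls from 0 (no effect) to 10 (complete control).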
# [2] = test system: giant foxtail; experiment: Test B pre/postemergence giant foxtail; type: in vivo, Setaria faberii
# In short: as §1
# [3] = test system: blackgrass; experiment: Test B pre/postemergence blackgrass; type: in vivo, Alopecurus myosuroides
# In short: as §1
# [4] = test system: crabgrass; experiment: Test B pre/postemergence crabgrass; type: in vivo, Digitaria sanguinalis
# In short: as §1
# [5] = test system: wild oat; experiment: Test B pre/postemergence wild oat; type: in vivo, Avena fatua
# In short: as §1
# [6] = test system: bedstraw; experiment: Test B pre/postemergence bedstraw; type: in vivo, Galium aparine; details: Preemergence
# In short: as §1
# [7] = test system: cocklebur; experiment: Test B pre/postemergence cocklebur; type: in vivo, Xanthium strumarium
# In short: as §1
# [8] = test system: morningglory; experiment: Test B pre/postemergence morningglory; type: in vivo, Ipomoea hederacea
# In short: as §1
# [9] = test system: corn; experiment: Test B pre/postemergence corn; type: in vivo, Zea mays
# In short: as §1
# [10] = test system: pigweed; experiment: Test B pre/postemergence pigweed; type: in vivo, Amaranthus retroflexus
# In short: as §1
# [11] = test system: velvetleaf; experiment: Test B pre/postemergence velvetleaf; type: in vivo, Abutilon theophrasti
# In short: as §1
# [12] = test system: soybean; experiment: Test B pre/postemergence soybean; type: in vivo, Glycine max
# In short: as §1
# [13] = test system: surinam grass; experiment: Test B pre/postemergence surinam grass; type: in vivo, Brachiaria decumbens
# In short: as §1
# [14] = test system: purple nutsedge; experiment: Test B pre/postemergence purple nutsedge; type: in vivo, Cyperus rotundus
# In short: as §1
# [15] = test system: sugar beet; experiment: Test B pre/postemergence sugar beet; type: in vivo, Beta vulgaris
# In short: as §1
# [16] = test system: wheat; experiment: Test B pre/postemergence wheat; type: in vivo, Triticum aestivum
# In short: as §1
# [17] = Postemergence, Rate 62 g/ha, scale of 0 to 10, 0 is no effect, 10 is complete control
# [18] = Postemergence, Rate 125 g/ha, scale 0 to 10, 0 is no effect, 10 is complete control
# [19] = Postemergence, Rate 500 g/ha, scale 0 to 10, 0 is no effect, 10 is complete control
# [20] = Preemergence, Rate 62 g/ha, scale 0 to 10 (0 no effect, 10 complete control)
# [21] = Preemergence, Rate 125 g/ha, scale 0 to 10, 0 is no effect, 10 is complete control
# [22] = Preemergence, Rate 500 g/ha, scale of 0 to 10 where 0 is no effect and 10 is complete control
# [23] = Rate 250 g/ha, Postemergence, scale of 0 to 10 where 0 is no effect and 10 is complete control
compound,measurement,setting,value
COCCOCn1c(=O)on(C(=O)N(c2ccc(Cl)cc2)C(C)C)c1=O [Compound 535],Rape plant response rating,[1]; [17],0
same,Rape plant response rating,[1]; [18],0
same,"Plant response rating, Rape",[1]; [19],0
same,Rape plant response rating,[1]; [20],2
same,Rape plant response rating,[1]; [21],2
same,Rape plant response rating (0 to 10 scale),"[1]; Preemergence, Rate 250 g/ha",2
same,Rape plant response rating,[1]; [22],3
same,"Plant response rating, Rape",[1]; [23],0
same,Giant foxtail plant response rating,[2]; [17],5
same,"Plant response rating, Giant foxtail",[2]; [19],5
same,Giant foxtail plant response rating,[2]; [20],10
same,Giant foxtail plant response rating,[2]; [21],10
same,Giant foxtail plant response rating (0 to 10 scale),"[2]; Preemergence, Rate 250 g/ha",10
same,Giant foxtail plant response rating,[2]; [22],10
same,"Plant response rating, Giant foxtail",[2]; [23],5
same,Blackgrass plant response rating,[3]; [17],0
same,Blackgrass plant response rating,[3]; [18],4
same,"Plant response rating, Blackgrass",[3]; [19],8
same,Blackgrass plant response rating,[3]; [21],0
same,Blackgrass plant response rating (0 to 10 scale),"[3]; Preemergence, Rate 250 g/ha",0
same,Blackgrass plant response rating,[3]; [22],0
same,"Plant response rating, Blackgrass",[3]; [23],7
same,Crabgrass plant response rating,[4]; [17],5
same,"Plant response rating, Crabgrass",[4]; [19],6
same,Crabgrass plant response rating,[4]; [20],10
same,Crabgrass plant response rating,[4]; [21],10
same,Crabgrass plant response rating (0 to 10 scale),"[4]; Preemergence, Rate 250 g/ha",10
same,Crabgrass plant response rating,[4]; [22],10
same,"Plant response rating, Crabgrass",[4]; [23],5
same,Wild oats plant response rating,[5]; [17],0
same,Wild oats plant response rating,[5]; [18],0
same,"Plant response rating, Wild oats",[5]; [19],2
same,Wild oats plant response rating,[5]; [20],0
same,Wild oats plant response rating,[5]; [21],0
same,Wild oats plant response rating (0 to 10 scale),"[5]; Preemergence, Rate 250 g/ha",0
same,Wild oats plant response rating,[5]; [22],0
same,"Plant response rating, Wild oats",[5]; [23],0
same,Bedstraw plant response rating,"[6]; Rate 62 g/ha, scale 0 to 10 (0 no effect, 10 complete control)",0
same,Bedstraw plant response rating,"[6]; Rate 125 g/ha, scale 0 to 10, 0 is no effect, 10 is complete control",0
same,Bedstraw plant response rating,"[6]; Rate 500 g/ha, scale of 0 to 10 where 0 is no effect and 10 is complete control",0
same,Cocklebur plant response rating,[7]; [17],0
same,Cocklebur plant response rating,[7]; [18],0
same,"Plant response rating, Cocklebur",[7]; [19],0
same,Cocklebur plant response rating,[7]; [20],0
same,Cocklebur plant response rating,[7]; [21],0
same,Cocklebur plant response rating (0 to 10 scale),"[7]; Preemergence, Rate 250 g/ha",0
same,Cocklebur plant response rating,[7]; [22],0
same,"Plant response rating, Cocklebur",[7]; [23],0
same,Morningglory plant response rating,[8]; [17],4
same,Morningglory plant response rating,[8]; [18],2
same,"Plant response rating, Morningglory",[8]; [19],3
same,Morningglory plant response rating,[8]; [20],0
same,Morningglory plant response rating,[8]; [21],0
same,Morningglory plant response rating (0 to 10 scale),"[8]; Preemergence, Rate 250 g/ha",0
same,Morningglory plant response rating,[8]; [22],2
same,"Plant response rating, Morningglory",[8]; [23],2
same,Corn plant response rating,[9]; [17],0
same,Corn plant response rating,[9]; [18],0
same,"Plant response rating, Corn",[9]; [19],0
same,Corn plant response rating,[9]; [20],0
same,Corn plant response rating,[9]; [21],0
same,Corn plant response rating (0 to 10 scale),"[9]; Preemergence, Rate 250 g/ha",0
same,Corn plant response rating,[9]; [22],2
same,"Plant response rating, Corn",[9]; [23],0
same,Redroot pigweed plant response rating,[10]; [17],0
same,Redroot pigweed plant response rating,[10]; [18],0
same,"Plant response rating, Redroot pigweed",[10]; [19],0
same,Redroot pigweed plant response rating,[10]; [20],2
same,Redroot pigweed plant response rating,[10]; [21],2
same,Redroot pigweed plant response rating (0 to 10 scale),"[10]; Preemergence, Rate 250 g/ha",4
same,Redroot pigweed plant response rating,[10]; [22],4
same,"Plant response rating, Redroot pigweed",[10]; [23],0
same,Velvetleaf plant response rating,[11]; [17],0
same,Velvetleaf plant response rating,[11]; [18],0
same,"Plant response rating, Velvetleaf",[11]; [19],2
same,Velvetleaf plant response rating,[11]; [20],0
same,Velvetleaf plant response rating,[11]; [21],0
same,Velvetleaf plant response rating (0 to 10 scale),"[11]; Preemergence, Rate 250 g/ha",2
same,"Plant response rating, Velvetleaf",[11]; [23],0
same,Soybean plant response rating,[12]; [17],3
same,Soybean plant response rating,[12]; [18],6
same,"Plant response rating, Soybean",[12]; [19],8
same,Soybean plant response rating,[12]; [20],0
same,Soybean plant response rating,[12]; [21],0
same,Soybean plant response rating (0 to 10 scale),"[12]; Preemergence, Rate 250 g/ha",0
same,Soybean plant response rating,[12]; [22],0
same,"Plant response rating, Soybean",[12]; [23],6
same,B. signalgrass plant response rating,[13]; [17],0
same,B. signalgrass plant response rating,[13]; [18],0
same,"Plant response rating, B. signalgrass",[13]; [19],3
same,B. signalgrass plant response rating,[13]; [21],0
same,"B. signalgrass plant response rating (0 to 10 scale, 0 is no effect, 10 is complete control)","[13]; Preemergence, Rate 250 g/ha",0
same,B. signalgrass plant response rating,[13]; [22],0
same,"Plant response rating, B. signalgrass",[13]; [23],0
same,Nutsedge plant response rating,[14]; [17],0
same,Nutsedge plant response rating,[14]; [18],0
same,"Plant response rating, Nutsedge",[14]; [19],0
same,Nutsedge plant response rating,[14]; [20],0
same,Nutsedge plant response rating,[14]; [21],0
same,Nutsedge plant response rating (0 to 10 scale),"[14]; Preemergence, Rate 250 g/ha",0
same,Nutsedge plant response rating,[14]; [22],0
same,"Plant response rating, Nutsedge",[14]; [23],0
same,Sugarbeets plant response rating,[15]; [17],0
same,Sugarbeets plant response rating,[15]; [18],0
same,"Plant response rating, Sugarbeets",[15]; [19],0
same,Sugarbeets plant response rating,[15]; [20],4
same,Sugarbeets plant response rating,[15]; [21],4
same,Sugarbeets plant response rating (0 to 10 scale),"[15]; Preemergence, Rate 250 g/ha",5
same,"Plant response rating, Sugarbeets",[15]; [23],0
same,Wheat plant response rating,[16]; [17],0
same,Wheat plant response rating,[16]; [18],0
same,"Plant response rating, Wheat",[16]; [19],2
same,Wheat plant response rating,[16]; [20],0
same,Wheat plant response rating,[16]; [21],0
same,Wheat plant response rating (0 to 10 scale),"[16]; Preemergence, Rate 250 g/ha",0
same,Wheat plant response rating,[16]; [22],0
same,"Plant response rating, Wheat",[16]; [23],0

# — US6737383B1, “Herbicidal oxadiazolidines” (priority 1999, dated 2004)
